Experimental data taken from patent US9399649B2, “Compounds for treating spinal muscular atrophy” (PTC Therapeutics Inc., priority 2012, dated 2016).

Assays:
[1] = system: Smn protein; assay: Smn protein assay in cultured cells (SMN HTRF); type: cell-based, human; conditions: SMA patient fibroblast cells (GM03813), 48 hours; for EC1.5x for Smn protein expression: 7-point concentration curve, concentration producing 1.5 times Smn protein vs DMSO vehicle; for maximum fold (Fold) increase of Smn protein: 7-point concentration data, relative to vehicle control
In short: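 SMA patient fibroblasts, 5,000 per well in DMEM-10% FBS, exposed 48 h at 37° C. to a 7-point, 3.16-fold compound series in triplicate. RIPA lysates read by SMN HTRF (665/620 nm, overnight at room temperature); ΔF over blank expressed as fold of vehicle.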

[2] = system: full length SMN2 minigene mRNA containing SMN2 exon 7; assay: SMN2 minigene mRNA splicing RT-qPCR assay in cultured cells; type: cell-based, human; conditions: Homo sapiens, HEK293-H; HEK293H cells stably transfected with SMN2-A minigene, 24 hours, 7-point concentration curve; concentration giving 1.5-fold full length SMN2 mRNA vs vehicle; read-out: EC1.5x for production of full length SMN2 mRNA
In short: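 HEK293H cells stably carrying SMN2-A minigene treated 24 h (37 °C) with compound, 7-point 3.16-fold dilution, duplicates. Multiplex RT-qPCR on lysate with exon 7/luciferase primers and exon 7–8 junction probe (minigene-specific). Full-length transcript normalised to GAPDH by modified ΔΔCt, expressed relative to vehicle-treated cells.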

In the case of `Cc1cn2cc(-c3cc4ccc(N5CCN(C)[C@@H](C)C5)cc4c(=O)o3)nc2cn1` [Cpd 121, 7-[(3S)-3,4-dimethylpiperazin-1-yl]-3-(6-methylimidazo[1,2-a]pyrazin-2-yl)-1H-isochromen-1-one], the “EC1.5x for Smn protein expression” value [1] is reported as “**** (an EC1.5×≦0.3 nM is indicated by four stars (****))”, the “maximum fold (Fold) increase of Smn protein” value (“maximum fold (Fold) increase” for short) [1] is reported as “***** (a fold increase >1.65 is indicated by five stars (*****))” and the melting point is reported as 250 to 255 °C. For the same compound, the EC (1.5-fold) [2] was ≤ 0.1 µM.
For `Cc1cn2cc(-c3cc4ccc(N5CCN(C)CC5)cc4c(=O)o3)nc2cn1` [Cpd 122, 3-(6-methylimidazo[1,2-a]pyrazin-2-yl)-7-(4-methylpiperazin-1-yl)-1H-isochromen-1-one], the “EC1.5x for Smn protein expression” value [1] was “**** (an EC1.5×≦0.3 nM is indicated by four stars (****))”, the “maximum fold (Fold) increase” value [1] was “***** (a fold increase >1.65 is indicated by five stars (*****))” and the melting point was 279 to 285 °C. For the same compound, the EC (1.5-fold) [2] was ≤ 0.1 µM.
In the case of `Cc1cn2cc(-c3cc4ccc(N5CCC(O)CC5)cc4c(=O)o3)nc2c(C)n1` [Cpd 123, 3-(6,8-dimethylimidazo[1,2-a]pyrazin-2-yl)-7-(4-hydroxypiperidin-1-yl)-1H-isochromen-1-one], the “maximum fold (Fold) increase” value [1] is reported as “* (A maximum fold increase of ≦1.2 is indicated by one star (*))”, the melting point is reported as 290 to 292 °C and the EC (1.5-fold) [2] is reported as 1 to 3 µM.
With `Cc1cn2cc(-c3cc4ccc(N5CCC(N(C)C)CC5)cc4c(=O)o3)nc2c(C)n1` [Cpd 124, 7-[4-(dimethylamino)piperidin-1-yl]-3-(6,8-dimethylimidazo[1,2-a]pyrazin-2-yl)-1H-isochromen-1-one] the “EC1.5x for Smn protein expression” value [1] was “**** (an EC1.5×≦0.3 nM is indicated by four stars (****))”, the “maximum fold (Fold) increase” value [1] was “**** (a fold increase between >1.5 and ≦1.65 is indicated by four stars (****))” and the melting point was 274 to 276 °C. The EC (1.5-fold) [2] was ≤ 0.1 µM.
In the case of `Cc1cn2cc(-c3cc4ccc(N5CCN[C@H](C)C5)cc4c(=O)o3)nc2cn1` [Cpd 125, 3-(6-methylimidazo[1,2-a]pyrazin-2-yl)-7-[(3R)-3-methylpiperazin-1-yl]-1H-isochromen-1-one], the “EC1.5x for Smn protein expression” value [1] is reported as “**** (an EC1.5×≦0.3 nM is indicated by four stars (****))”, the “maximum fold (Fold) increase” value [1] is reported as “***** (a fold increase >1.65 is indicated by five stars (*****))” and the melting point is reported as 219 to 225 °C. The EC (1.5-fold) [2] was ≤ 0.1 µM.
For `CCN1CCN(c2ccc3cc(-c4cn5cc(C)ncc5n4)oc(=O)c3c2)C[C@H]1C` [Cpd 126, 7-[(3R)-4-ethyl-3-methylpiperazin-1-yl]-3-(6-methylimidazo[1,2-a]pyrazin-2-yl)-1H-isochromen-1-one], the “EC1.5x for Smn protein expression” value [1] was “**** (an EC1.5×≦0.3 nM is indicated by four stars (****))”, the “maximum fold (Fold) increase” value [1] was “**** (a fold increase between >1.5 and ≦1.65 is indicated by four stars (****))” and the melting point was 238 to 241 °C. For the same compound, the EC (1.5-fold) [2] was ≤ 0.1 µM.
For `Cc1cn2cc(-c3cc4ccc(N5CCN(C)[C@H](C)C5)cc4c(=O)o3)nc2cn1` [Cpd 127, 7-[(3R)-3,4-dimethylpiperazin-1-yl]-3-(6-methylimidazo[1,2-a]pyrazin-2-yl)-1H-isochromen-1-one], the “EC1.5x for Smn protein expression” value [1] was “**** (an EC1.5×≦0.3 nM is indicated by four stars (****))”, the “maximum fold (Fold) increase” value [1] was “***** (a fold increase >1.65 is indicated by five stars (*****))” and the melting point was 243 to 248 °C. The EC (1.5-fold) [2] was ≤ 0.1 µM.
With `Cc1cn2cc(-c3cc4ccc(N5CCN(C(C)C)CC5)cc4c(=O)o3)nc2cn1` [Cpd 128, 3-(6-methylimidazo[1,2-a]pyrazin-2-yl)-7-[4-(propan-2-yl)piperazin-1-yl]-1H-isochromen-1-one] the “EC1.5x for Smn protein expression” value [1] was “**** (an EC1.5×≦0.3 nM is indicated by four stars (****))”, the “maximum fold (Fold) increase” value [1] was “***** (a fold increase >1.65 is indicated by five stars (*****))” and the melting point was 231 to 236 °C. The EC (1.5-fold) [2] was ≤ 0.1 µM.
In the case of `CCN1[C@H](C)CN(c2ccc3cc(-c4cn5cc(C)ncc5n4)oc(=O)c3c2)C[C@@H]1C` [Cpd 129, 7-[(3R,5S)-4-ethyl-3,5-dimethylpiperazin-1-yl]-3-(6-methylimidazo[1,2-a]pyrazin-2-yl)-1H-isochromen-1-one], the “EC1.5x for Smn protein expression” value [1] is reported as “**** (an EC1.5×≦0.3 nM is indicated by four stars (****))”, the “maximum fold (Fold) increase” value [1] is reported as “***** (a fold increase >1.65 is indicated by five stars (*****))” and the melting point is reported as 233 to 238 °C. The EC (1.5-fold) [2] was ≤ 0.1 µM.
In the case of `Cc1cn2cc(-c3cc4ccc(N5C[C@@H](C)N(CCO)[C@@H](C)C5)cc4c(=O)o3)nc2cn1` [Cpd 130, 7-[(3R,5S)-4-(2-hydroxyethyl)-3,5-dimethylpiperazin-1-yl]-3-(6-methylimidazo[1,2-a]pyrazin-2-yl)-1H-isochromen-1-one], the “EC1.5x for Smn protein expression” value [1] is reported as “**** (an EC1.5×≦0.3 nM is indicated by four stars (****))”, the “maximum fold (Fold) increase” value [1] is reported as “**** (a fold increase between >1.5 and ≦1.65 is indicated by four stars (****))” and the melting point is reported as 241 to 245 °C. The EC (1.5-fold) [2] was ≤ 0.1 µM.
With `Cc1cn2cc(-c3cc4ccc(N5C[C@@H](C)N(C)[C@@H](C)C5)cc4c(=O)o3)nc2cn1` [Cpd 131, 3-(6-methylimidazo[1,2-a]pyrazin-2-yl)-7-[(3R,5S)-3,4,5-trimethylpiperazin-1-yl]-1H-isochromen-1-one] the “EC1.5x for Smn protein expression” value [1] was “**** (an EC1.5×≦0.3 nM is indicated by four stars (****))”, the “maximum fold (Fold) increase” value [1] was “***** (a fold increase >1.65 is indicated by five stars (*****))” and the melting point was 279 to 284 °C. For the same compound, the EC (1.5-fold) [2] was ≤ 0.1 µM.
In the case of `CCN1CCN(c2ccc3cc(-c4cn5cc(C)nc(C)c5n4)oc(=O)c3c2)C[C@@H]1C` [Cpd 135, 3-(6,8-dimethylimidazo[1,2-a]pyrazin-2-yl)-7-[(3S)-4-ethyl-3-methylpiperazin-1-yl]-1H-isochromen-1-one], the “EC1.5x for Smn protein expression” value [1] is reported as “**** (an EC1.5×≦0.3 nM is indicated by four stars (****))”, the “maximum fold (Fold) increase” value [1] is reported as “***** (a fold increase >1.65 is indicated by five stars (*****))” and the melting point is reported as 238 to 243 °C. The EC (1.5-fold) [2] was ≤ 0.1 µM.
For `Cc1cn2cc(-c3cc4ccc(N5CCN(C6CCC6)[C@@H](C)C5)cc4c(=O)o3)nc2c(C)n1` [Cpd 136, 7-[(3S)-4-cyclobutyl-3-methylpiperazin-1-yl]-3-(6,8-dimethylimidazo[1,2-a]pyrazin-2-yl)-1H-isochromen-1-one], the “EC1.5x for Smn protein expression” value [1] was “**** (an EC1.5×≦0.3 nM is indicated by four stars (****))”, the “maximum fold (Fold) increase” value [1] was “***** (a fold increase >1.65 is indicated by five stars (*****))” and the melting point was 277 to 282 °C. For the same compound, the EC (1.5-fold) [2] was ≤ 0.1 µM.
In the case of `CCCN1CCN(c2ccc3cc(-c4cn5cc(C)nc(C)c5n4)oc(=O)c3c2)C[C@@H]1C` [Cpd 137, 3-(6,8-dimethylimidazo[1,2-a]pyrazin-2-yl)-7-[(3S)-3-methyl-4-propylpiperazin-1-yl]-1H-isochromen-1-one], the “EC1.5x for Smn protein expression” value [1] is reported as “**** (an EC1.5×≦0.3 nM is indicated by four stars (****))”, the “maximum fold (Fold) increase” value [1] is reported as “***** (a fold increase >1.65 is indicated by five stars (*****))” and the melting point is reported as 249 to 254 °C. The EC (1.5-fold) [2] was ≤ 0.1 µM.
For `Cc1cn2cc(-c3cc4ccc(N5CCN(C(C)C)[C@@H](C)C5)cc4c(=O)o3)nc2c(C)n1` [Cpd 138, 3-(6,8-dimethylimidazo[1,2-a]pyrazin-2-yl)-7-[(3S)-3-methyl-4-(propan-2-yl)piperazin-1-yl]-1H-isochromen-1-one], the “EC1.5x for Smn protein expression” value [1] was “*** (an EC1.5× between >0.3 nM and ≦1 nM is indicated by three stars (***))”, the “maximum fold (Fold) increase” value [1] was “**** (a fold increase between >1.5 and ≦1.65 is indicated by four stars (****))” and the melting point was 266 to 271 °C. The EC (1.5-fold) [2] was 0.1 to 0.3 µM.
For `Cc1cn2cc(-c3cc4ccc(N5CCN(C6COC6)[C@@H](C)C5)cc4c(=O)o3)nc2c(C)n1` [Cpd 139, 3-(6,8-dimethylimidazo[1,2-a]pyrazin-2-yl)-7-[(3S)-3-methyl-4-(oxetan-3-yl)piperazin-1-yl]-1H-isochromen-1-one], the “EC1.5x for Smn protein expression” value [1] was “** (an EC1.5× between >1 μM, and ≦3 nM is indicated by two stars (**))”, the “maximum fold (Fold) increase” value [1] was “***** (a fold increase >1.65 is indicated by five stars (*****))” and the melting point was 251 to 256 °C. The EC (1.5-fold) [2] was 0.3 to 1 µM.
In the case of `CCN1CCN(c2ccc3cc(-c4cn5cc(C)nc(C)c5n4)oc(=O)c3c2)C[C@H]1C` [Cpd 140, 3-(6,8-dimethylimidazo[1,2-a]pyrazin-2-yl)-7-[(3R)-4-ethyl-3-methylpiperazin-1-yl]-1H-isochromen-1-one], the “EC1.5x for Smn protein expression” value [1] is reported as “**** (an EC1.5×≦0.3 nM is indicated by four stars (****))”, the “maximum fold (Fold) increase” value [1] is reported as “***** (a fold increase >1.65 is indicated by five stars (*****))” and the melting point is reported as 243 to 246 °C. The EC (1.5-fold) [2] was ≤ 0.1 µM.
For `CCCN1CCN(c2ccc3cc(-c4cn5cc(C)nc(C)c5n4)oc(=O)c3c2)C[C@H]1C` [Cpd 141, 3-(6,8-dimethylimidazo[1,2-a]pyrazin-2-yl)-7-[(3R)-3-methyl-4-propylpiperazin-1-yl]-1H-isochromen-1-one], the “EC1.5x for Smn protein expression” value [1] was “**** (an EC1.5×≦0.3 nM is indicated by four stars (****))”, the “maximum fold (Fold) increase” value [1] was “***** (a fold increase >1.65 is indicated by five stars (*****))” and the melting point was 251 to 256 °C. For the same compound, the EC (1.5-fold) [2] was ≤ 0.1 µM.
